Laboratory results taken from the supplement of paper PMC11451515.

Test system: SEM cells
Assay: cell viability relative to DMSO control; higher = less cytotoxic
Conditions: 48 h
In short: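 Viability, reported as a per-plate percentage of DMSO wells with cell-free wells as background, came from CellTiter-Glo One luminescence. Reading took place after 48 h at 37°C. Before that, NOMO1 or SEM (500 cells/well) or P12-Ichikawa (1000 cells/well) leukemia cells, adapted for at least four passages in each medium, were seeded in 1536-well plates (5 μl) and pin-dosed with library compounds in DMSO, 47 μM to 0.79 nM over 11 threefold points.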

[1] = HPLM + 10% dialyzed FBS, 0.000781 µM
[2] = HPLM + 10% dialyzed FBS, 0.00234 µM
[3] = HPLM + 10% dialyzed FBS, 0.00702 µM
[4] = HPLM + 10% dialyzed FBS, 0.0211 µM
[5] = HPLM + 10% dialyzed FBS, 0.0632 µM
[6] = HPLM + 10% dialyzed FBS, 0.19 µM
[7] = HPLM + 10% dialyzed FBS, 0.569 µM
[8] = HPLM + 10% dialyzed FBS, 1.71 µM
[9] = HPLM + 10% dialyzed FBS, 5.12 µM
[10] = HPLM + 10% dialyzed FBS, 15.4 µM
[11] = HPLM + 10% dialyzed FBS, 46.1 µM
[12] = RPMI 5 mM glucose + 10% FBS, 0.000781 µM
[13] = RPMI 5 mM glucose + 10% FBS, 0.00234 µM
[14] = RPMI 5 mM glucose + 10% FBS, 0.00702 µM
[15] = RPMI 5 mM glucose + 10% FBS, 0.0211 µM
[16] = RPMI 5 mM glucose + 10% FBS, 0.0632 µM
[17] = RPMI 5 mM glucose + 10% FBS, 0.19 µM
[18] = RPMI 5 mM glucose + 10% FBS, 0.569 µM
[19] = RPMI 5 mM glucose + 10% FBS, 1.71 µM
[20] = RPMI 5 mM glucose + 10% FBS, 5.12 µM
[21] = RPMI 5 mM glucose + 10% FBS, 15.4 µM
[22] = RPMI 5 mM glucose + 10% FBS, 46.1 µM
[23] = RPMI 5 mM glucose + 10% dialyzed FBS, 0.000781 µM
[24] = RPMI 5 mM glucose + 10% dialyzed FBS, 0.00234 µM
[25] = RPMI 5 mM glucose + 10% dialyzed FBS, 0.00702 µM
[26] = RPMI 5 mM glucose + 10% dialyzed FBS, 0.0211 µM
[27] = RPMI 5 mM glucose + 10% dialyzed FBS, 0.0632 µM
[28] = RPMI 5 mM glucose + 10% dialyzed FBS, 0.19 µM
[29] = RPMI 5 mM glucose + 10% dialyzed FBS, 0.569 µM
[30] = RPMI 5 mM glucose + 10% dialyzed FBS, 1.71 µM
[31] = RPMI 5 mM glucose + 10% dialyzed FBS, 5.12 µM
[32] = RPMI 5 mM glucose + 10% dialyzed FBS, 15.4 µM
[33] = RPMI 5 mM glucose + 10% dialyzed FBS, 46.1 µM

SMILES | cell viability [1] | cell viability [2] | cell viability [3] | cell viability [4] | cell viability [5] | cell viability [6] | cell viability [7] | cell viability [8] | cell viability [9] | cell viability [10] | cell viability [11] | cell viability [12] | cell viability [13] | cell viability [14] | cell viability [15] | cell viability [16] | cell viability [17] | cell viability [18] | cell viability [19] | cell viability [20] | cell viability [21] | cell viability [22] | cell viability [23] | cell viability [24] | cell viability [25] | cell viability [26] | cell viability [27] | cell viability [28] | cell viability [29] | cell viability [30] | cell viability [31] | cell viability [32] | cell viability [33]
CC(C)(O)CC[C@@H](O)[C@](C)(O)[C@H]1CC[C@@]2(O)C/3=C/C(=O)[C@@H]4C[C@@H](O)[C@@H](O)C[C@]4(C)[C@H]3CC[C@]12C | 115% | 107% | 112% | 97.8% | 97.5% | 110% | 99.7% | 103% | 93.5% | 89.7% | 94.7% | 96.3% | 93.8% | 98.3% | 93.4% | 102% | 98.8% | 85.2% | 97.7% | 96.4% | 87% | 79.8% | 104% | 106% | 103% | 80.2% | 81.7% | 92.8% | 77.3% | 104% | 83.4% | 94.2% | 74.6%
CCC1(c2ccccc2)C(=O)NCNC1=O | 94.6% | 104% | 105% | 78.7% | 102% | 110% | 114% | 117% | 116% | 106% | 122% | 100% | 112% | 108% | 76.1% | 106% | 109% | 108% | 103% | 116% | 113% | 117% | 91.6% | 115% | 123% | 84.4% | 108% | 120% | 117% | 115% | 114% | 117% | 109%
CNC(=O)c1ccc(N2C(=S)N(c3cnc(C#N)c(C(F)(F)F)c3)C(=O)C23CCC3)cc1F | 92.3% | 88.8% | 80.1% | 103% | 76.8% | 95.6% | 105% | 98% | 107% | 101% | 95.2% | 83.9% | 94.1% | 90.7% | 93.6% | 97.1% | 92.7% | 94.8% | 101% | 98.3% | 98.6% | 93.9% | 82.6% | 95.3% | 85.3% | 91.5% | 114% | 100% | 97.8% | 98.2% | 96.8% | 93.3% | 108%
NNCCc1ccccc1 | – | – | – | – | – | – | – | – | – | – | – | – | – | – | – | – | – | – | – | – | – | – | 102% | 120% | 120% | 127% | 127% | 112% | 115% | 127% | 103% | 117% | 75.3%
S=C(NCc1ccc2c(c1)OCO2)N1CCN(c2ncnc3c2oc2ccccc23)CC1 | 116% | 120% | 123% | 100% | 129% | 23.2% | 124% | 124% | 93.7% | 79.4% | 16.7% | – | – | – | – | – | – | – | – | – | – | – | 104% | 103% | 121% | 127% | 134% | 126% | 134% | 135% | 62.9% | 64.5% | 17.5%
C[C@](O)(CS(=O)(=O)c1ccc(F)cc1)C(=O)Nc1ccc(C#N)c(C(F)(F)F)c1 | 93.9% | 108% | 104% | 89.4% | 116% | 112% | 114% | 116% | 105% | 109% | 93.4% | 81.3% | 101% | 99.7% | 74.3% | 88.6% | 97.2% | 102% | 88.4% | 93% | 91% | 75.3% | 105% | 113% | 116% | 73.4% | 119% | 111% | 132% | 122% | 96.1% | 97.5% | 72.7%
COc1cc(OC2CCN(C)CC2)ccc1Nc1ncc2c(n1)n(C1CCCC1)c(=O)n2C | 63.8% | 87.5% | 78.2% | 69.4% | 77.3% | 99% | 97.3% | 64.7% | 59% | 25.6% | 2.44% | 87.4% | 80.4% | 79.3% | 81.1% | 99% | 90.1% | 83.2% | 67.4% | 76.1% | 20.7% | 2.73% | 74.2% | 88.5% | 71.9% | 75.4% | 78.3% | 96.1% | 84.4% | 55.4% | 67.7% | 26.6% | 2.25%
CC[C@]12CC[C@H]3[C@@H](CCC/4=C/C(=O)CC[C@H]34)[C@@H]1\C=C/[C@@]2(O)C#C | 78.9% | 96.1% | 106% | 102% | 111% | 108% | 115% | 109% | 127% | 110% | 121% | 110% | 107% | 119% | 123% | 131% | 117% | 106% | 124% | 116% | 125% | 116% | 113% | 110% | 108% | 115% | 116% | 120% | 109% | 118% | 115% | 118% | 118%
